Measurements: article PMC3254106 (ACS medicinal chemistry letters, 2011)
pIC50: −log10 of the molar value. One block for each compound: values may come before it.

Tests used:
[1] = tested on: Aurora; experiment: Aurora activity of analogues; assay type: biochemical
[2] = tested on: Pancreatic cancer cells (PSN-1); experiment: Cell cycle analysis, propidium iodide flow cytometry; assay type: cell-based; details: PSN-1, 30 nM, 24 hours
[3] = tested on: panel of 75 kinases; experiment: Kinase panel profiling at 200 nM; details: 200 nM profiling
[4] = target: T1, AXL kinase (Homo sapiens, UniProt P30530); experiment: AXL kinase biochemical assay
T1 sequence (P30530 26-894): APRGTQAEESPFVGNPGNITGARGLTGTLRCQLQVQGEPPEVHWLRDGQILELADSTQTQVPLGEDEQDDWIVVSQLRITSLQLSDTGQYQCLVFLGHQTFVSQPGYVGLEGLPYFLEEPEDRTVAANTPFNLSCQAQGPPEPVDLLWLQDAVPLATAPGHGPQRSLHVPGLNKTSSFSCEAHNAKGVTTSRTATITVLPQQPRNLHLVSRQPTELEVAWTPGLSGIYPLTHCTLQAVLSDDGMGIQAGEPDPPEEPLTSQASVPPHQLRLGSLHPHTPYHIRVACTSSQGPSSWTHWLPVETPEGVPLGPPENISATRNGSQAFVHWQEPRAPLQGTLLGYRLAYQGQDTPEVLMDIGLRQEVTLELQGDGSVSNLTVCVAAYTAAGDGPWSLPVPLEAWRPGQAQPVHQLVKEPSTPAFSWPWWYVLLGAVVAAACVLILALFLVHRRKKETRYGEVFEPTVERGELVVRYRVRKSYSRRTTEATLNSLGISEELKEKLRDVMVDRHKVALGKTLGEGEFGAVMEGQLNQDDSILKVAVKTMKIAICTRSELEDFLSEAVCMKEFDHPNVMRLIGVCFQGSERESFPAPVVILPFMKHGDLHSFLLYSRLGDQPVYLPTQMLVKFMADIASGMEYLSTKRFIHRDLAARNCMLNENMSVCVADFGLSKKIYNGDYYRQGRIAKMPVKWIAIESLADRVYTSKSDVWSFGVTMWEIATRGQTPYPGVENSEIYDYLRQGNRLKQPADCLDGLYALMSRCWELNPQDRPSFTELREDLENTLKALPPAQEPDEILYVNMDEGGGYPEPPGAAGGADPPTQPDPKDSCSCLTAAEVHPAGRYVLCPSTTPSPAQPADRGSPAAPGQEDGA

Structure (SMILES): Cc1cnc(Nc2ccc(CN3CCN(C)CC3)cc2)nc1-c1ccc(F)cc1S(=O)(=O)N1CCCC1 [Compound 15]
- Aurora activity [1]: strong aurora activity

Structure (SMILES): CN1CCN(Cc2ccc(Nc3ncc(Cl)c(-c4ccc(F)cc4S(=O)(=O)N4CCCC4)n3)cc2)CC1 [Compound 27]
- Aurora activity [1]: strong aurora activity

- activity against MER, TYRO3, Aurora A and B, JAK2, ALK, ABL1 and CHEK1 [3]: strong activity
Structure (SMILES): CN1CCN(Cc2ccc(Nc3ncc(Cl)c(Nc4ccccc4S(=O)(=O)N(C)C)n3)cc2)CC1 [Compound 13]
- G2/M (4N) population of cells [2]: significant increase
- cells with ≥4N DNA (8N peak, endoreduplication) [2]: accumulation of cells with ≥4N DNA

Structure (SMILES): CN1CCN(Cc2ccc(Nc3ncc(Cl)c(-c4ccc(F)cc4S(=O)(=O)N(C)C)n3)cc2)CC1 [Compound 26]
- Aurora activity [1]: strong aurora activity

Structure (SMILES): CN1CCN(Cc2ccc(Nc3ncc(F)c(-c4ccc(F)cc4S(=O)(=O)N4CCCC4)n3)cc2)CC1 [Compound 16]
- Aurora activity [1]: strong aurora activity

- pIC50 [4]: 4.48
Structure (SMILES): CN1CCN(c2ccc(Nc3nc(-c4ccc(F)c(Cl)c4)cc(-c4ccc[nH]4)n3)cc2F)CC1 [Compound 1]

- pIC50 [4]: 4.33
Structure (SMILES): CN1CCN(c2ccc(Nc3nc(-c4ccc(F)c(Cl)c4)cc(-c4ccc(F)c(Cl)c4)n3)cc2F)CC1 [Compound 2]
